According to PubChem BioAssay (NCI):
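Values below derive from 48-hour exposures of cells grown in 96-well plates, with endpoints linearly interpolated between the two concentrations bracketing the appropriate inhibition level. The concentration for 50% growth inhibition is given as GI50. Definition used: TGI = concentration required for complete inhibition of growth.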

Legend:
Assay in all cases: NCI anticancer screen, dose series, 48 h; in the data active means GI50 below about 0.43 µM; inactive means the rest
[1] = system: SF-295 CNS
[2] = system: ACHN renal
[3] = system: SNB-19 CNS
[4] = system: SF-539 CNS
[5] = system: NCI-H23 lung
[6] = system: UACC-257 melanoma
[7] = system: SK-MEL-2 melanoma
[8] = system: KM12 colon
[9] = system: CCRF-CEM leukemia
[10] = system: OVCAR-8 ovarian
[11] = system: SNB-75 CNS
[12] = system: MOLT-4 leukemia
[13] = system: SK-MEL-28 melanoma
[14] = system: MDA-MB-435
[15] = system: OVCAR-5 ovarian
[16] = system: MDA-MB-231 breast

C=CCC(N(C)C(=O)[C@H](Cc1ccccc1)NC(=O)OCc1ccccc1)P(=O)(Oc1ccccc1)Oc1ccccc1 (stereo partly drawn)
> 100 µM: TGI [1] | TGI [2] | TGI [3] | TGI [4] | TGI [5] | TGI [6] | TGI [7] | TGI [8] | TGI [9] | TGI [10] | TGI [11] | TGI [12] | TGI [13]

CCOC(=O)/C=C/n1c2ccccc2c(=O)c2ccccc21
> 100 µM: TGI [1] | TGI [2] | TGI [3] | TGI [4] | TGI [5] | TGI [6] | TGI [7] | TGI [8] | TGI [9] | TGI [10] | TGI [12] | TGI [13]

CC(=O)O[C@H]1C(=O)[C@@]2(C)[C@H]([C@H](OC(=O)c3ccccc3)[C@]3(O)C[C@H](OC(=O)[C@H](O)[C@@H](NC(=O)c4cccc(N=[N+]=[N-])c4)c4ccccc4)C(C)=C1C3(C)C)[C@]1(OC(C)=O)CO[C@@H]1C[C@@H]2O
0.0133 µM: TGI [4]
0.00412 µM: TGI [14]
1.06 µM: TGI [15]
0.0681 µM: TGI [9]
0.19 µM: TGI [1]
0.785 µM: TGI [11]
> 22.8 µM: TGI [13]
1.12 µM: TGI [12]
0.422 µM: TGI [16]
> 25 µM: TGI [2] | TGI [3] | TGI [8] | TGI [10]

COC(=O)CC1NC(=O)[C@@H]1C(C)O (stereo partly drawn)
> 100 µM: TGI [1] | TGI [2] | TGI [3] | TGI [4] | TGI [6] | TGI [7] | TGI [9] | TGI [10] | TGI [11] | TGI [12] | TGI [13]

CN1c2ccccc2N(C(=O)c2ccc(Cl)cc2)C(CC(=O)O)c2cccn21 (stereo not drawn)
> 100 µM: TGI [1] | TGI [2] | TGI [3] | TGI [4] | TGI [5] | TGI [6] | TGI [7] | TGI [8] | TGI [9] | TGI [10] | TGI [11] | TGI [12] | TGI [13] | TGI [15]

CCC12CCCN(Cc3ccccc3)C1c1c(n(C)c3ccccc13)C(C(=O)OC)C2 (stereo not drawn)
231 µM: TGI [1]
> 239 µM: TGI [2] | TGI [3] | TGI [4] | TGI [5] | TGI [7] | TGI [8] | TGI [9] | TGI [10] | TGI [12] | TGI [13] | TGI [15]
191 µM: TGI [6]

Cc1cccc(N(C(=O)Nc2ccc(Cl)c(Cl)c2)C2=NCC(C)S2)c1 (stereo not drawn)
> 100 µM: TGI [1] | TGI [2] | TGI [3] | TGI [4] | TGI [5] | TGI [6] | TGI [7] | TGI [8] | TGI [9] | TGI [10] | TGI [11] | TGI [12] | TGI [13] | TGI [15] | TGI [16]

CCOP(=O)(OCC)C(C)(CC)N/C(=N/C(NC(C)=O)(C(F)(F)F)C(F)(F)F)NC1=NC(C(F)(F)F)(C(F)(F)F)N=C(C(F)(F)F)O1 (stereo not drawn)
91.5 µM: TGI [5]
82.8 µM: TGI [1]
45.3 µM: TGI [12]
94.8 µM: TGI [6]
48.7 µM: TGI [16]
27.2 µM: TGI [11]
> 100 µM: TGI [2] | TGI [3] | TGI [4] | TGI [14] | TGI [8] | TGI [9] | TGI [10] | TGI [13] | TGI [15]
62.3 µM: TGI [7]

N#C/C(c1nc2ccccc2[nH]1)=c1\s/c(=C/c2ccc(Cl)cc2)c(=O)n1-c1ccccc1
> 100 µM: TGI [2] | TGI [3] | TGI [4] | TGI [5] | TGI [6] | TGI [7] | TGI [8] | TGI [9] | TGI [10] | TGI [11] | TGI [12] | TGI [13] | TGI [15]

CC1CN(c2ccc(Cl)cc2)CC(C)OC(=O)O1 (stereo not drawn)
> 100 µM: TGI [1] | TGI [2] | TGI [3] | TGI [4] | TGI [5] | TGI [6] | TGI [7] | TGI [8] | TGI [9] | TGI [10] | TGI [11] | TGI [13] | TGI [15]

Nc1nc(SCc2ccc([N+](=O)[O-])cc2)nc2c1ncn2C1OC(CO)C(O)C1O (stereo not drawn)
> 100 µM: TGI [1] | TGI [2] | TGI [3] | TGI [5] | TGI [6] | TGI [8] | TGI [9] | TGI [10] | TGI [12] | TGI [13] | TGI [15]

Cc1ccc(N(C(=O)Nc2ccccc2)C2=NCC(C)S2)cc1C (stereo not drawn)
48.5 µM: TGI [4]
91.2 µM: TGI [10]
45 µM: TGI [16]
> 10 µM: TGI [6] | TGI [12]
> 100 µM: TGI [2] | TGI [3]
31.2 µM: TGI [13]
56.4 µM: TGI [11]
40.5 µM: TGI [8]
42.5 µM: TGI [5]
32.2 µM: TGI [7]
73.5 µM: TGI [15]
50.6 µM: TGI [9]
85.3 µM: TGI [1]

CC(C)CC(NC(=O)OC(C)(C)C)C(=O)Nc1ccc(Nc2nc(F)nc(-c3c4ccccc4c4n3CCS4)n2)cc1 (stereo not drawn)
33.1 µM: TGI [5]
48.3 µM: TGI [6]
38.2 µM: TGI [11]
36.9 µM: TGI [3]
39 µM: TGI [12]
42.7 µM: TGI [13]
35.9 µM: TGI [1]
39.2 µM: TGI [2]
33.6 µM: TGI [7]
37.7 µM: TGI [4]
38.3 µM: TGI [10]
51.1 µM: TGI [8]
44.7 µM: TGI [15]
16.9 µM: TGI [9]

COc1ccc(-n2c(=O)[nH]n(C(C)=O)c2=O)cc1
> 100 µM: TGI [1] | TGI [2] | TGI [3] | TGI [4] | TGI [5] | TGI [6] | TGI [7] | TGI [14] | TGI [8] | TGI [9] | TGI [10] | TGI [11] | TGI [12] | TGI [13] | TGI [15] | TGI [16]

O=S(Nc1ccccc1)c1cccc(Cl)c1 (stereo not drawn)
> 100 µM: TGI [1] | TGI [2] | TGI [3] | TGI [5] | TGI [6] | TGI [14] | TGI [8] | TGI [9] | TGI [10] | TGI [11] | TGI [12] | TGI [13] | TGI [15] | TGI [16]
77.6 µM: TGI [4]

Cc1ccc([N+](=O)[O-])cc1NC(=O)/C(=N/NC(=S)NN)C1SC(=S)NC1=O (stereo not drawn)
> 100 µM: TGI [1] | TGI [2] | TGI [3] | TGI [4] | TGI [5] | TGI [6] | TGI [7] | TGI [8] | TGI [9] | TGI [10] | TGI [11] | TGI [12] | TGI [13] | TGI [15]

COC(=O)C(C#CCCCCC#CC(NC(=O)OCc1ccccc1)(C(=O)OC)C(F)(F)F)(NC(=O)OCc1ccccc1)C(F)(F)F (stereo not drawn)
> 100 µM: TGI [1] | TGI [2] | TGI [3] | TGI [4] | TGI [5] | TGI [6] | TGI [8] | TGI [9] | TGI [10] | TGI [11] | TGI [13] | TGI [15]

C=CCOC(=O)NC1C(OC(C)[C@@H](NC(=O)OCc2ccccc2)C(=O)OC(C)(C)C)OC(COC(C)=O)C(OC(C)=O)C1OC(C)=O (stereo partly drawn)
> 100 µM: TGI [1] | TGI [2] | TGI [3] | TGI [4] | TGI [5] | TGI [6] | TGI [14] | TGI [8] | TGI [9] | TGI [10] | TGI [12] | TGI [13] | TGI [15]
9.46 µM: TGI [11]
96.2 µM: TGI [16]

CCOc1ccc(/C(Cl)=C(\C=O)c2ccc(OC)c(OC)c2)cc1OCC
> 100 µM: TGI [1] | TGI [2] | TGI [3] | TGI [4] | TGI [5] | TGI [6] | TGI [7] | TGI [8] | TGI [9] | TGI [10] | TGI [11] | TGI [12] | TGI [13] | TGI [15]

CC(C)C1=CC23CCC4C(C)(C(=O)O)CCCC4(C)C2CC1C1C(=O)N(c2ccccc2N2C(=O)C4C5CC6C7(C)CCCC(C)(C(=O)O)C7CCC6(C=C5C(C)C)C4C2=O)C(=O)C13 (stereo not drawn)
11.6 µM: TGI [5]
21.8 µM: TGI [2]
26.1 µM: TGI [7]
22.1 µM: TGI [9]
16 µM: TGI [3]
25 µM: TGI [15]
13.1 µM: TGI [14]
12.5 µM: TGI [4]
13.8 µM: TGI [8]
14.2 µM: TGI [12]
32.3 µM: TGI [16]

CCSc1n/c(=C\c2ccco2)c2nncn12
> 100 µM: TGI [1] | TGI [2] | TGI [3] | TGI [5] | TGI [7] | TGI [14] | TGI [8] | TGI [9] | TGI [10] | TGI [11] | TGI [12] | TGI [13] | TGI [15] | TGI [16]

COc1cccc([C@H]2C/C(=N\NC(=O)C(=O)N[C@@H](C)c3ccccc3)c3ccccc3N2)c1
21.3 µM: TGI [4]
1.05 µM: TGI [10]
0.0762 µM: TGI [8]
3.09 µM: TGI [9]
41.4 µM: TGI [16]
active: GI50 [3] 0.0259 µM | GI50 [4] 0.0208 µM | GI50 [10] 0.0285 µM
> 100 µM: TGI [1] | TGI [2] | TGI [3] | TGI [6] | TGI [7] | TGI [13] | TGI [15]

COc1ccc(N=Cc2ccc(N(CCC#N)S(=O)(=O)c3ccccc3)cc2)cc1
> 100 µM: TGI [1] | TGI [2] | TGI [3] | TGI [4] | TGI [5] | TGI [6] | TGI [7] | TGI [8] | TGI [9] | TGI [10] | TGI [11] | TGI [12] | TGI [13] | TGI [15]
